Values quoted from earlier work in patent US12060328B2, “Co-crystals or salts of psilocybin and methods of treatment therewith” (RESET PHARMACEUTICALS, INC., priority 2022, dated 2024).

Details: cited from earlier work; for pKa (acidic) / pKa (basic): co-former property, Table 1

| SMILES | pKa (acidic) | pKa (basic) | also measured |
| --- | --- | --- | --- |
| CN(C)CCc1c[nH]c2cccc(OP(=O)(O)O)c12 [psilocybin, [3-(2-dimethylaminoethyl)-1H-indol-4-yl]dihydrogen phosphate] |  |  | pKa3 (tertiary amine) (estimated) (reported value, estimated): 10.4; pKa1 (1st phosphate oxygen) (reported value): 1.3; pKa2 (2nd phosphate oxygen) (reported value): 6.5 |
| OC[C@@H](O)[C@@H](O)CO [meso-erythritol] | 13.90 |  |  |
| CCCOC(=O)c1cc(O)c(O)c(O)c1 [propyl 3,4,5-trihydroxybenzoate] | 7.94 |  |  |
| NC(N)=O [urea] |  | 0.10 |  |
| OC[C@@H](O)[C@@H](O)[C@H](O)[C@H](O)CO [D-mannitol] | 13.50 |  |  |
| O=C1CC[C@@H](C(=O)O)N1 [L-pyroglutamic acid] | 3.48 |  |  |
| O=C(O)[C@H](O)[C@@H](O)[C@H](O)[C@H](O)CO [gluconic acid] | 3.6 |  |  |
| Cn1c(=O)c2[nH]cnc2n(C)c1=O [theophylline] | 8.81 |  |  |
| NC(CS)C(=O)O (racemic) [DL-cysteine] | 1.71 | 8.33 |  |
| NC(=O)c1ccncc1 [isonicotinamide] |  | 3.61 |  |
| NC(CO)(CO)CO [tromethamine] |  | 8.95 |  |
